Key:
ErbB2/ErbB3 heterodimer = ErbB2/ErbB3 heterodimer (Homo sapiens, UniProt P21860); conditions: greater affinity than for ErbB3 homodimers; cited from earlier work
[1] = tested on: Human Bronchial Epithelial Cells (HBECs); assay: Effect of NRG1 isoforms on MUC5AC and MUC5B protein (goblet cell formation) in HBECs at air-liquid interface, immunohistochemistry; assay type: cell-based; conditions: HBECs at ALI, 7 days
Experimental: (§1) Human Bronchial epithelial cells (HBECs; Cambrex) were cultured in bronchial epithelial cell growth medium (BEGM; Cambrex) supplemented with the provided singlequots essentially as described in [Atherton et al, 2003]. For differentiation, cells were grown on 0.4 μm pore size, 12 mm TRANSWELL® inserts (Costar) at a cell density of 8.25×10^4 cells/insert in differentiation medium. Differentiation medium contained 50% BEGM and 50% Dulbeccos' modified Eagle's medium (DMEM) and was supplemented with 52 μg/ml bovine pituitary extract, 5 μg/ml insulin, 0.5 μg/ml hydrocortisone, 10 μg/ml transferrin, 0.5 μg/ml epinephrine 0.5 ng/ml human EGF, 50 μg/ml gentamicin and 50 nM retinoic acid. Cells were maintained submerged for 7 days then grown at air-liquid interface (ALI) for 7-14 days and medium was replenished every 2-3 days. Cells were treated with NRG1α or NRG1β1 (R&D SYSTEMS®) during the ALI culture period, added to the basolateral chamber of the TRANSWELL® inserts. At all stages cells were maintained at 37° C. in the presence of 5% CO2 in an air incubator.
After 7 days (unless otherwise stated) of differentiation at ALI, the apical surface of the HBECs was washed gently with PBS and fixed with neutral buffered formalin and wax embedded. Inserts were sectioned at 3 μm thickness and stained with either an anti-MUC5AC antibody (45M1; LABVISION®) or anti-MUC5B monoclonal antibodies using a DABMAP protocol on a VENTANA® XT immunostainer and counterstained with 1% alcian blue in 3% acetic acid, pH 2.5. The area of staining was assessed using a ZEISS® Axioplan 2 microscope (×10 magnification) with an Imaging Associated KS400 image analyzer (Imaging Associates). Fourteen fields were scored for each sample. Data are presented as goblet cell density, which was defined as the ratio of stained area (μm^2) to length (μm) of epithelium scored. Custom made anti-MUC5B monoclonal antibodies were obtained from the Hybridoma Core Laboratory, University of Florida and were raised against the peptide SWYNGHRPEPGLG (SEQ ID NO:11).

ErbB3 = ErbB3 (Homo sapiens, UniProt P21860); conditions: higher affinity than NRG1a; cited from earlier work
[2] = tested on: Human Bronchial Epithelial Cells (HBECs); assay: Inhibition of NRG1β1-induced goblet cell formation (MUC5AC and MUC5B protein by histology) in HBECs; assay type: cell-based; conditions: inhibitor at 10 μM, NRG1β1 50 nM, 7 days at ALI
Experimental: as §1, with “Cells were treated with NRG1α or NRG1β1 (R&D SYSTEMS®) during the ALI culture period, added to the basolateral chamber of the TRANSWELL® inserts. At all stages cells were maintained at 37° C. in the presence of 5% CO2 in an air incubator.” left out
After 7 days (unless otherwise stated) of differentiation at ALI, the apical surface of the HBECs was washed gently with PBS and fixed with neutral buffered formalin and wax embedded. […] The area of staining was assessed using a ZEISS® Axioplan 2 microscope (×10 magnification) with an Imaging Associated KS400 image analyzer (Imaging Associates). Fourteen fields were scored for each sample. Data are presented as goblet cell density, which was defined as the ratio of stained area (μm^2) to length (μm) of epithelium scored. […]

Chain of ErbB3 (P21860 20-1342): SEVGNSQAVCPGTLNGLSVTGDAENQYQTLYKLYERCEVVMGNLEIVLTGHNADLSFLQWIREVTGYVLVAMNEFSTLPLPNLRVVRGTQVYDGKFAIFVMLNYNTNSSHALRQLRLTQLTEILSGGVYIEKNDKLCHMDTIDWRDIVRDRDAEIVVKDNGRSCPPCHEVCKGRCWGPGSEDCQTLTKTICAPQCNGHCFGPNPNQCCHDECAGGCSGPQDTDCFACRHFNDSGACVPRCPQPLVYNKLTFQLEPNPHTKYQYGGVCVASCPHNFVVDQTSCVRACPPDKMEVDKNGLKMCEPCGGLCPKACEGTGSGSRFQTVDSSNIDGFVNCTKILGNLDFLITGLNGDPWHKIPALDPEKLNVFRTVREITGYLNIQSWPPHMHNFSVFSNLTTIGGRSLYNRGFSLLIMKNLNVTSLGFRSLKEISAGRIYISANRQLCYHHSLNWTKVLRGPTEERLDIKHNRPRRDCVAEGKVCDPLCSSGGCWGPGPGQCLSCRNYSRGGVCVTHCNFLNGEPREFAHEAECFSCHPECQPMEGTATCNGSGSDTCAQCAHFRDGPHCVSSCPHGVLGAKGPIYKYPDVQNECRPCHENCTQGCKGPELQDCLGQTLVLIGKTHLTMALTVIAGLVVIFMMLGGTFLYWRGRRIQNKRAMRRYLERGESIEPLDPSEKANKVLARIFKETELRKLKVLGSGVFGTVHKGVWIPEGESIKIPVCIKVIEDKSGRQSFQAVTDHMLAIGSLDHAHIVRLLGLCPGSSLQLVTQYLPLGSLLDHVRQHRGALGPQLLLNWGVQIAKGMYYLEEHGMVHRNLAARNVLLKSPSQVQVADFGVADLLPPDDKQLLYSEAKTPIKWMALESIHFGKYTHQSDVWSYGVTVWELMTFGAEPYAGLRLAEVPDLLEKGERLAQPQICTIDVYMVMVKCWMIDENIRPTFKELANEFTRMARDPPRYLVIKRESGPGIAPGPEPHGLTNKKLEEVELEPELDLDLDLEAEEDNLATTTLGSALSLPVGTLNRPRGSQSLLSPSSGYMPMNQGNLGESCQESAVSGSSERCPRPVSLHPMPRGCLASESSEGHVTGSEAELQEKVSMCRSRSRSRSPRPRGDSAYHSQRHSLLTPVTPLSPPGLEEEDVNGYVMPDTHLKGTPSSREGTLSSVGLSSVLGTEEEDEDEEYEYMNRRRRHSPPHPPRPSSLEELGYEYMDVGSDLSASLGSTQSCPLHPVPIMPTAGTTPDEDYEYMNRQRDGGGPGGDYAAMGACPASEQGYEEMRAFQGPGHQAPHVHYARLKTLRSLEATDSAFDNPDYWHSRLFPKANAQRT

**Q.** With “NRG1β1: Neuregulin-1 isoform β1 protein (R&D SYSTEMS) added to HBEC cultures” as the molecule, how does the “affinity for the ErbB2/ErbB3 heterodimer relative to ErbB3 homodimers” value (ErbB2/ErbB3 heterodimer) read?
**A.** 100 fold

**Q.** What about the “increase in MUC5AC protein over vehicle levels” value ([1]; 50 nM, histology) of the same molecule?
**A.** 3 fold

**Q.** What about the “increase in MUC5B protein” value ([1]; 50 nM, immunohistochemistry) of the same molecule?
**A.** 9.8 fold

**Q.** What about the “effect on MUC5AC protein” value ([1]; increasing concentrations, histology) of the same molecule?
**A.** dose-dependent increase

**Q.** And the “affinity for ErbB3 relative to NRG1a” value (ErbB3)?
**A.** 100 fold

**Q.** Which results are given for `CCN1CCN(Cc2ccc(-c3cc4c(N[C@H](C)c5ccccc5)ncnc4[nH]3)cc2)CC1` [pan-ErbB receptor inhibitor]?
**A.** effect on NRG1β1-induced increase in MUC5AC protein [2]: significantly inhibited; effect on NRG1β1-induced increase in MUC5B protein [2]: significantly inhibited

Reference: patent publication US8658165B2, “Method of treating aberrant mucus production in respiratory disease” (Novartis AG, priority 2007, dated 2014)
